Calls of active or inactive are those of the source.
Columns and labels:
[1] = target: Albumin (Bos taurus, UniProt P02769); assay: Counterscreen for inhibitors of T-cell receptor (TCR)-CD3 interaction: Fluorescence-based biochemical high throughput dose response assay to identify inhibitors of T-cell receptor (TCR)-CD3 interaction using a TAMRA-labeled BSA probe.; format: functional
[2] = target: Cytochrome P450 2C19 (Homo sapiens, UniProt P33261); assay: Cytochrome panel assay with activity outcomes. Panel member name: p450-cyp2c19 Compounds with AC50 equal or less than 10 uM are considered active; format: functional; conditions: read-out: AC50
[3] = target: Beta-galactosidase (Escherichia coli, UniProt Q8VNN2); assay: Dose response counterscreen for EBI2 assay utilizing the enzyme, b-galactosidase.; format: functional
[4] = target: T1, Cytochrome P450 1A2 (Homo sapiens, UniProt P05177);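 note: PubChem cytochrome P450 panel assay, CYP1A2 panel member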
T1 sequence (P05177 whole entry): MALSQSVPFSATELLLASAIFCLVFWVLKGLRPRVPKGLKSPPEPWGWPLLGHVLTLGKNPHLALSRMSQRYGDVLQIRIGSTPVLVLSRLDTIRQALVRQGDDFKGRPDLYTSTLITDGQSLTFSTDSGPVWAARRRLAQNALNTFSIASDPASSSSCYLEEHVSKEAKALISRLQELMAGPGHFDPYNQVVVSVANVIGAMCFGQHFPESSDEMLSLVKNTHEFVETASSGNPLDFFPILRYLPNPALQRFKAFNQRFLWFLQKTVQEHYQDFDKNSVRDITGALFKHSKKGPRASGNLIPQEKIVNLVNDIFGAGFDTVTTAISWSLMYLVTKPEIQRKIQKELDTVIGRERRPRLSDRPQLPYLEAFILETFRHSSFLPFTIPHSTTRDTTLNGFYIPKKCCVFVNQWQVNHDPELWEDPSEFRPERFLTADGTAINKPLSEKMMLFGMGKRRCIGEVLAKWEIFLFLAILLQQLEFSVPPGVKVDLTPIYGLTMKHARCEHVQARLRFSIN

[5] = target: Peroxisome proliferator-activated receptor gamma/Nuclear receptor coactivator 1 (Homo sapiens, UniProt P37231); assay: TR-FRET dose response biochemical High Throughput Screening assay for agonists of the steroid receptor coactivator 1 (SRC-1) recruitment by the peroxisome proliferator-activated receptor gamma (PPAR gamma): non-selective agonists. [Related pubchem assays (depositor defined):AID1300, AID1808, AID504735, AID631]; format: protein assay
[6] = target: Peroxisome proliferator-activated receptor gamma/Nuclear receptor coactivator 3 (Homo sapiens, UniProt P37231); assay: TR-FRET dose response biochemical High Throughput Screening assay for agonists of the steroid receptor coactivator 3 (SRC-3) recruitment by the peroxisome proliferator-activated receptor gamma (PPAR gamma): non-selective agonists. [Related pubchem assays: 1301 (Confirmation screen.), 1048 (Primary screen.)]; format: functional
[7] = target: Peroxisome proliferator-activated receptor gamma/Nuclear receptor coactivator 2 (Homo sapiens, UniProt P37231); assay: TR-FRET dose response biochemical High Throughput Screening assay for agonists of the steroid receptor coactivator 2 (SRC-2) recruitment by the peroxisome proliferator-activated receptor gamma (PPAR gamma): non-selective agonists. [Related pubchem assays: 1297, 1032 ]; format: functional
[8] = target: Photoreceptor-specific nuclear receptor (Homo sapiens, UniProt Q9Y5X4); format: functional, cell-based;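 note: CHO-S cells with Gal4-NCOR and VP16-NR2E3 two-hybrid luciferase reporter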
[9] = target: SWI/SNF-related matrix-associated actin-dependent regulator of chromatin subfamily A member 2 (Homo sapiens, UniProt P51531); assay: Luminescence-based cell-based high throughput dose response assay to identify activators of the function of SWI/SNF related, matrix associated, actin dependent regulator of chromatin, subfamily a, member 2 (SMARCA2, BRM).; format: functional
[10] = Counterscreen for activators of the function of SWI/SNF related, matrix associated, actin dependent regulator of chromatin, subfamily a, member 2 (SMARCA2, BRM): Luminescence-based cell-based high throughput dose response assay to identify non-selective compounds using the VP16 reporter assay.; format: functional
[11] = target: Oxysterols receptor LXR-beta (Homo sapiens, UniProt P55055); format: functional, cell-based;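 note: agonist activity at LXR measured by a cell-based luminescence readout across a dose range, run as a counterscreen for daf-12 agonists; HEK293 cells with Gal4-LXR fusion and GAL4-driven luciferase reporter; potency for activation of Gal4-LXR reporter so compounds are agonists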
[12] = Trypanosoma cruzi growth suppression in host cells – NIH3T3 host cells, beta-gal luminescence, confirmation (AID 2044); format: functional, cell-based;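 note: intracellular parasites grown in NIH/3T3 mouse fibroblasts as host cells; luminescent beta-galactosidase reporter signal from transgenic T. cruzi replicating inside host cells; inhibitors lower the luminescence signal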
[13] = NIH3T3 cell viability loss – ATP luminescence, mouse fibroblasts, counter-screen, dose response (AID 2010); format: functional, cell-based;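 note: cells exposed to compound for about 90 hours before reading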
[14] = potency of ADAM10 substrate cleavage blockers – biochemical, QFRET, dose response (AID 743254);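 note: ADAM10 enzyme with the DM2 quenched FRET peptide as substrate; EDANS fluorescence gain as the protease cuts the substrate; inhibitor potency against ADAM10 proteolytic activity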
[15] = target: T2, Disintegrin and metalloproteinase domain-containing protein 17 (Homo sapiens, UniProt P78536); assay: inhibition of ADAM17 substrate cleavage – biochemical, quenched FRET substrate, counter-screen for ADAM10 exosite inhibitor project, dose response (AID 743253)
[16] = test system: INS1; assay: INS-1E survival protection against cytokine death – cell-based, luminescence, retest, dose response (AID 449756); format: functional; conditions: Rattus norvegicus;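 note: cell death triggered by IL-1 beta plus TNF-alpha plus IFN-gamma mixture; protective hits raise ATP signal compared with cytokine alone wells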
[17] = reduction of Shn3 3'UTR-driven luciferase in osteoblasts – cell-based, Clone20 osteoblasts, firefly luciferase, cherry-picked, dose response (AID 624132); format: functional;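 note: firefly luciferase luminescence from reporter carrying the Shn3 3'UTR in osteoblasts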
[18] = loss of viability in HepG2 cells – cell-based, CellTiter-Glo, cherry-picked, cytotoxicity control for Shn3 inhibitor project, dose response (AID 624134); format: functional
[19] = non-specific 3'UTR reporter inhibition in Clone20-Shn3RL – cell-based, Renilla luciferase, cherry-picked, counter-screen for Shn3 inhibitor project, dose response (AID 624133); format: functional
[20] = target: T2, Disintegrin and metalloproteinase domain-containing protein 17; assay: exosite inhibitors of ADAM17, dose response, biochemical (AID 743260)
[21] = inhibition of ADAM10 peptide cleavage – biochemical, FRET peptide substrate, recombinant human ADAM10, selectivity assay for ADAM17 exosite inhibitor project, dose response (AID 743259);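 note: ADAM10 enzyme cleaving a FRET peptide substrate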
[22] = target: Major prion protein (Homo sapiens, UniProt P04156); format: functional, cell-based
[23] = cells
[24] = target: fMet-Leu-Phe receptor (Homo sapiens, UniProt P21462); assay: formyl peptide receptor binders – dose response (AID 519); format: functional
[25] = viability loss in HepG2 hepatoma cells – cell-based, ATP luminescence, cherry-pick, activator set 2, cytotoxicity control, dose response (AID 1053143); format: functional
[26] = inhibitors acting on PAX2 in cells – cell-based, plate reader, dry powder samples, selectivity assay for PAX8 inhibitor project, dose response (AID 743048); format: functional;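 note: HEK293 cells carrying a WT1 promoter luciferase reporter driven by expressed Pax2; potency is for inhibition of Pax2 driven reporter signal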
[27] = OVCAR-3 cell viability loss – plate reader, dry powder samples, PAX8 inhibitor project, dose response (AID 743044); format: functional, cell-based
[28] = IGROV1 cell killing – plate reader, dry powder samples, PAX8 inhibitor project, dose response (AID 743043); format: functional, cell-based; conditions: IGROV-1
[29] = COV434 cell viability loss – plate reader, dry powder, SA7, cytotoxicity control for PAX8 inhibitor project, dose response (AID 743145); format: functional, cell-based
[30] = OV-90 cell viability loss – plate reader, dry powder, SA8, PAX8 inhibitor project, dose response (AID 743149); format: functional, cell-based
[31] = PAX8-dependent cell viability loss – plate reader, dry powder, dose response (AID 743049); format: functional, cell-based
[32] = target: Fructose-bisphosphate aldolase (Mycobacterium tuberculosis, UniProt P9WQA3); assay: Fluorescence-based biochemical high throughput dose response assay for inhibitors of the fructose-bisphosphate aldolase (FBA) of M. tuberculosis.; format: functional
[33] = target: 1-phosphatidylinositol 4,5-bisphosphate phosphodiesterase gamma-1 (Homo sapiens, UniProt P19174); assay: Counterscreen for inhibitors of phospholipase C isozymes (PLC-B3): Fluorescence-based biochemical high throughput dose response assay to identify inhibitors of phospholipase C isozymes (PLC-gamma1).
[34] = target: 1-phosphatidylinositol 4,5-bisphosphate phosphodiesterase beta-3 (Homo sapiens, UniProt Q01970); assay: Fluorescence-based biochemical high throughput dose response assay to identify inhibitors of phospholipase C isozymes (PLC-B3).
[35] = target: Paired box protein Pax-8 (Homo sapiens, UniProt Q06710); assay: PAX8 transcriptional activity inhibition in RMG-I – RMG-I cells, luciferase, cherry-pick, dose response (AID 687027); format: functional, cell-based;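 note: luciferase reporter driven by Pax8 target thyroperoxidase promoter measured by SteadyGlo luminescence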
[36] = CMV-driven luciferase expression suppression in HEK293 – cell-based, luminescence, dry powder, counter-screen for Pax8 inhibitor project, dose response (AID 743020); format: functional
[37] = A549 cell cytotoxicity, dose response, cytotoxicity control, plate reader, cherry-pick, antagonist series (AID 743412); format: functional, cell-based
[38] = inhibition of bursicon-driven LGR2 cAMP signaling – cell-based, HEK293, CRE-luciferase reporter, cherry pick, dose response (AID 743342); format: functional
[39] = blockade of melanocortin 4 receptor signaling – cell-based, plate reader, cherry pick, counter-screen for LGR2 antagonist project, dose response (AID 743444); format: functional;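 note: transfected HEK 293 cells stimulated with alpha-MSH peptide; potency of inhibitors of the alpha-MSH evoked signal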
[40] = Late stage assay provider results from the probe development effort to identify selective inhibitors of heat shock protein 90 (HSP90): Absorbance-based cell proliferation assay in SKBR3 cells.; format: functional; conditions: SK-BR-3
[41] = Late stage assay provider results from the probe development effort to identify selective inhibitors of heat shock protein 90 (HSP90): Absorbance-based cell proliferation assay in MCF7 cells.; format: functional
[42] = target: T3, Caspase-6 (Homo sapiens, UniProt P55212); assay: inhibition of CASP6 peptide cleavage – biochemical, VEID-R110 fluorescence, dry powder retest, dose response (AID 743332)
T3 sequence (P55212 whole entry): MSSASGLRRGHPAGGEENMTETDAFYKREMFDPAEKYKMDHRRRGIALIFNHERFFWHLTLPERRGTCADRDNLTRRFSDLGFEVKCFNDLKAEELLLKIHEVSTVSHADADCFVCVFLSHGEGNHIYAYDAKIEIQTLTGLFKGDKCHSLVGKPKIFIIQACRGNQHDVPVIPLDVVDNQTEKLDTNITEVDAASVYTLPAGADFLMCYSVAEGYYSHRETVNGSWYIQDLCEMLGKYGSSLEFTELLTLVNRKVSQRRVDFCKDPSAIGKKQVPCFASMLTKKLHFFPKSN

SMILES: CC(C)(C)c1ccc(C(=O)NCC(=O)NNC(=O)c2ccccc2O)cc1
- IC50 [1]: > 94.1 µM (inactive)

SMILES: CCOC(=O)N1CCN(C(=O)c2cc(-c3ccc(F)cc3)[nH]c2C)CC1
- AC50 [2]: 10 µM (inconclusive)
- IC50 [3]: > 80 µM (inactive)
- AC50 [4]: 20 µM (inconclusive)

SMILES: CCn1c(=O)cc(SCC(=O)Nc2ccc(C)cn2)c2ccccc21
- EC50 [5]: > 79.4 µM (inactive)
- EC50 [6]: > 79.4 µM (not active)
- EC50 [7]: > 79.4 µM (not active)
- IC50 [8]: 0.469 µM (active)
- EC50 [9]: > 91.2 µM (inactive)
- EC50 [10]: > 91.2 µM (inactive)

SMILES: Cn1c(NC(=O)CCC2CCCCC2)cc(=O)n(C)c1=O
- EC50 [11]: > 67.5 µM (inactive)

SMILES: S=C(Nc1ccc(Nc2ccccc2)cc1)NC1CCCCCC1
- EC50 [12]: 2.21 µM (active)
- EC50 [13]: 29 µM (active)
- IC50 [14]: > 7.72 µM (active)
- IC50 [15]: > 69.5 µM (inactive)

SMILES: Cc1cccc(Oc2cc(NC(=O)c3ccccc3)cc([N+](=O)[O-])c2)c1
- AC50 [16]: 3.57 µM (active)
- AC50 [17]: 3.09 µM (active)
- AC50 [18]: 45.5 µM (active)
- AC50 [19]: 13.6 µM (active)
- IC50 [20]: > 69.5 µM (inactive)
- IC50 [21]: > 69.5 µM (inactive)

SMILES: CN(C)S(=O)(=O)c1ccc(NC(=O)CSc2ncnc3ccccc23)cc1
- IC50 [22]: 16.5 µM (inactive)
- IC50 [23]: > 138 µM (inactive)

SMILES: COc1cc(C2C(C(=O)c3ccco3)=C(O)C(=O)N2CCc2ccccc2)ccc1O (configuration not stated)
- Ki [24]: > 66.7 µM (inactive)

SMILES: Cc1cc(NC(=O)c2ccco2)sc1C
- AC50 [25]: 26 µM (active)

SMILES: CN(C)CCCN(C(=O)CCOc1ccccc1)c1nc2c(F)cccc2s1
- AC50 [26]: > 100 µM (inactive)
- AC50 [27]: 44.9 µM (active)
- AC50 [28]: 44.1 µM (active)
- AC50 [29]: 22.8 µM (active)
- AC50 [30]: 13.1 µM (active)
- AC50 [31]: 10.8 µM (active)

SMILES: CCOC(=O)N1CCc2cc(OC)c(OC)c3c2c1cc1cc(OC)c(OC)cc13
- IC50 [32]: 2.7 µM (active)

SMILES: ONC(=Nc1ccc(Cl)cc1)c1ccccc1
- IC50 [33]: > 122 µM (inactive)
- IC50 [34]: > 122 µM (inactive)

SMILES: C[C@@H]1CCCCO[C@H](CN(C)Cc2ccc(Cl)c(Cl)c2)[C@@H](C)CN([C@@H](C)CO)C(=O)c2cc(NC(=O)Nc3ccccc3)ccc2O1
- AC50 [35]: 4.29 µM (active)
- AC50 [36]: 47.9 µM (active)

SMILES: C[C@H]1CCCCO[C@@H](CN(C)C(=O)Nc2ccc(F)cc2)[C@@H](C)CN([C@@H](C)CO)C(=O)c2cc(NC(=O)C3CCCCC3)ccc2O1
- AC50 [37]: 44.2 µM (active)
- AC50 [38]: 3.88 µM (active)
- AC50 [39]: 66 µM (active)

SMILES: N#Cc1cc2ccc(OCCCCC(=O)O)cc2oc1=O
- IC50 [40]: > 100 µM (inactive)
- IC50 [41]: > 100 µM (inactive)

SMILES: N#Cc1ccc(C(=O)N2CCN(S(=O)(=O)c3ccccc3)CC2)cc1
- AC50 [42]: > 70 µM (inactive)
